Assays:
Assay in all cases: relative viability (nuclei count vs DMSO), 5 days (fraction); higher = more cells survive
TGX 221 + Navitoclax = compound: CC1=CN2C(=O)C=C(N=C2C(=C1)C(C)NC3=CC=CC=C3)N4CCOCC4 [TGX 221] + CC1(C)CCC(c2ccc(Cl)cc2)=C(CN2CCN(c3ccc(C(=O)NS(=O)(=O)c4ccc(N[C@H](CCN5CCOCC5)CSc5ccccc5)c(S(=O)(=O)C(F)(F)F)c4)cc3)CC2)C1 [Navitoclax] (partner 0.5 µM)
How it was run: (§1)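 Relative viability is defined as nuclei in treated wells over nuclei in vehicle wells. Duplicate plates were run and medians reported. Lung cancer cell lines in 1536-well plates were dosed by pin tool one day after seeding, with one drug or with a fixed anchor-drug dose plus five library-drug doses (not always all listed) in √10 steps, and nuclei were counted after 5 days.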

Ricolinostat + AZD7762 = compound: O=C(CCCCCCNC(=O)c1cnc(N(c2ccccc2)c2ccccc2)nc1)NO [Ricolinostat] + NC(=O)Nc1cc(-c2cccc(F)c2)sc1C(=O)N[C@H]1CCCNC1 [AZD7762] (partner 0.2 µM)
How it was run: as §1

[1] = compound: O=C(CCCCCCNC(=O)c1cnc(N(c2ccccc2)c2ccccc2)nc1)NO [Ricolinostat] + Nc1ncn([C@H]2C[C@H](O)[C@@H](CO)O2)c(=O)n1 [Decitabine] (partner 2 µM)
How it was run: as §1

[2] = compound: O=C(CCCCCCNC(=O)c1cnc(N(c2ccccc2)c2ccccc2)nc1)NO [Ricolinostat] + O=C(CCCCCCC(=O)Nc1ccccc1)NO [Vorinostat] (partner 1 µM)
How it was run: as §1

| Cell Line | relative viability (TGX 221 + Navitoclax; first compound 0.253 µM) | relative viability (TGX 221 + Navitoclax; first compound 0.8 µM) | relative viability (TGX 221 + Navitoclax; first compound 2.53 µM) | relative viability (TGX 221 + Navitoclax; first compound 8 µM) | relative viability (Ricolinostat + AZD7762; first compound 0.08 µM) | relative viability (Ricolinostat + AZD7762; first compound 0.253 µM) | relative viability (Ricolinostat + AZD7762; first compound 0.8 µM) | relative viability (Ricolinostat + AZD7762; first compound 2.53 µM) | relative viability ([1]; first compound 0.08 µM) | relative viability ([1]; first compound 0.253 µM) | relative viability ([1]; first compound 0.8 µM) | relative viability ([1]; first compound 2.53 µM) | relative viability ([2]; first compound 0.08 µM) | relative viability ([2]; first compound 0.253 µM) | relative viability ([2]; first compound 0.8 µM) | relative viability ([2]; first compound 2.53 µM) | relative viability (TGX 221 + Navitoclax; first compound 0.08 µM) |
| --- | --- | --- | --- | --- | --- | --- | --- | --- | --- | --- | --- | --- | --- | --- | --- | --- | --- |
| 201T | 1.26 | 1.21 | 1.19 | 1.15 | 0.607 | 0.657 | 0.645 | 0.541 | 0.843 | 0.847 | 0.873 | 0.887 | 0.818 | 0.951 | 0.959 | 0.843 | – |
| A549 | 1.17 | 1.18 | 1.18 | 1.11 | – | – | – | – | 0.314 | 0.259 | 0.306 | 0.246 | – | – | – | – | 1.29 |
| A-427 | 0.976 | 0.949 | 0.935 | 0.803 | 0.606 | 0.708 | 0.518 | 0.507 | 0.547 | 0.591 | 0.559 | 0.558 | 0.789 | 0.789 | 0.624 | 0.752 | 1.05 |
| ABC-1 | – | – | – | – | 0.945 | 0.788 | 0.748 | 0.617 | 0.829 | 1.03 | 0.989 | 1.03 | 1.02 | 1.06 | 0.749 | 0.762 | – |
| BEN | 0.0617 | 0.0682 | 0.0659 | 0.0557 | 0.534 | 0.754 | 0.559 | 0.576 | 0.578 | 0.78 | 0.567 | 0.581 | 0.517 | 0.543 | 0.592 | 0.498 | 0.0671 |
| CAL-12T | 1.2 | 1.36 | 1.23 | 1.07 | 0.496 | 0.602 | 0.56 | 0.489 | – | – | – | – | 0.801 | 0.524 | 0.698 | 0.379 | 1.06 |
| COR-L23 | 1.02 | 0.963 | 0.954 | 0.997 | – | – | – | – | 0.402 | 0.493 | 0.358 | 0.332 | 0.406 | 0.383 | 0.388 | 0.297 | 1.01 |
| COR-L 105 | 0.613 | 0.842 | 0.799 | 0.558 | – | – | – | – | 0.675 | 0.65 | 0.7 | 0.669 | 0.794 | 0.825 | 0.643 | 0.7 | 0.97 |
| Calu-6 | 0.813 | 0.872 | 0.753 | 0.733 | – | – | – | – | – | – | – | – | – | – | – | – | 0.853 |
| ChaGo-K-1 | 1.02 | 0.987 | 0.737 | 1.36 | 0.842 | 0.901 | 0.862 | 0.798 | 0.58 | 0.495 | 0.51 | 0.509 | 0.717 | 0.762 | 0.73 | 0.523 | 0.957 |
| EBC-1 | 0.408 | 0.428 | 0.277 | 0.258 | – | – | – | – | – | – | – | – | – | – | – | – | 0.43 |
| EKVX | 0.869 | 0.866 | 0.908 | 0.758 | 0.673 | 0.732 | 0.654 | 0.487 | 0.31 | 0.322 | 0.299 | 0.346 | 0.617 | 0.724 | 0.62 | 0.74 | 0.926 |
| EMC-BAC-2 | 1.1 | 1.13 | 1.11 | 1.05 | 1.01 | 1.03 | 0.968 | 0.557 | 0.796 | 0.938 | 0.901 | 0.722 | 0.398 | 0.417 | 0.25 | 0.293 | 1.16 |
| EPLC-272H | 1.17 | 1.19 | – | 1.29 | – | 0.194 | 0.178 | 0.141 | – | 0.36 | 0.368 | 0.325 | 0.343 | 0.396 | 0.313 | 0.174 | 1.1 |
| H3255 | 0.49 | 0.515 | 0.553 | 0.601 | 0.717 | 0.759 | 0.75 | 0.849 | 0.522 | 0.598 | 0.538 | 0.426 | 0.735 | 1.09 | 0.672 | 0.591 | 0.486 |
| HARA | 1.13 | 1.03 | 1.13 | 1.11 | 0.35 | 0.256 | 0.184 | 0.236 | 0.335 | 0.408 | 0.464 | 0.405 | 0.496 | 0.446 | 0.377 | 0.373 | 1.18 |
| HCC-15 | 0.642 | 0.579 | 0.67 | 0.642 | 1.09 | 1.11 | 1.37 | 1.29 | 0.593 | 0.687 | 0.631 | 0.464 | 0.768 | 0.746 | 0.691 | 0.618 | 0.745 |
| HCC-44 | 0.981 | 0.918 | 0.837 | 0.732 | 1.05 | 0.972 | 0.993 | 1.05 | 1 | 0.948 | 0.926 | 0.951 | 1.16 | 0.99 | 1.06 | 1.06 | 0.992 |
| HCC-78 | 0.665 | – | 0.457 | 0.487 | – | 0.718 | 0.453 | 0.2 | – | 0.7 | 0.602 | 0.585 | – | 0.433 | 0.395 | 0.362 | 0.654 |
| HCC-366 | 0.927 | 0.916 | 1.07 | 0.914 | 0.266 | 0.27 | 0.264 | 0.172 | 0.332 | 0.344 | 0.342 | 0.329 | 0.296 | 0.327 | 0.313 | 0.165 | 1.03 |
| HCC-827 | 1.02 | 1.02 | 1.05 | 0.982 | 0.171 | 0.223 | 0.167 | 0.219 | 0.32 | 0.327 | 0.233 | 0.274 | 0.768 | 0.86 | 0.574 | 0.915 | 0.951 |
| HOP-62 | 1.06 | 1.09 | 1.12 | 1.06 | 0.352 | 0.521 | 0.53 | 0.277 | 0.217 | 0.186 | 0.144 | 0.221 | 0.572 | 0.537 | 0.478 | 0.292 | 1.04 |

From the supplement of paper PMC10307832
